Assay results from ChEMBL document CHEMBL1146246, “Synthesis and structure-activity relationship of novel RXR antagonists: orally active anti-diabetic and anti-obesity agents” (Bioorg Med Chem Lett, 2007).
Activity calls are given as the source filed them. No cut-off for these calls is given here.

Columns and labels:
[1] = molecular target: T1, Retinoic acid receptor RXR-alpha (Homo sapiens, UniProt P19793); experiment: Inhibition of LG-100268-induced RXRalpha transactivation
T1 sequence (P19793 whole entry): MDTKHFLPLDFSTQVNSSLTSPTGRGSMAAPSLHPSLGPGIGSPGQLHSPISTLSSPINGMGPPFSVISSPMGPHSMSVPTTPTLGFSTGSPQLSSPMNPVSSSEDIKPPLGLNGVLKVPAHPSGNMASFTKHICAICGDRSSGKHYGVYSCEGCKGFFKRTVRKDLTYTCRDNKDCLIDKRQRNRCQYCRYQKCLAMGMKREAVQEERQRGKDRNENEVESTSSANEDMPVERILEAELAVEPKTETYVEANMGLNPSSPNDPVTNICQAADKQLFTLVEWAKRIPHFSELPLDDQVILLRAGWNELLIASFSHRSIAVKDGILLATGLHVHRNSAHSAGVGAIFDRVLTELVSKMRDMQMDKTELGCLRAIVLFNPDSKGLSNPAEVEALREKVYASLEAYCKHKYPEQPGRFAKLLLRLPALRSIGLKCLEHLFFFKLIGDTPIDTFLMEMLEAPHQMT

[2] = molecular target: T1, Retinoic acid receptor RXR-alpha; experiment: Inhibition of 9-cis-retinoic acid-induced RXRalpha transactivation
Mus musculus [3] = organism: Mus musculus; experiment: Decrease in plasma insulin concentration in obese/diabetic KKAy mouse; format: ADME, organism-based
Mus musculus [4] = organism: Mus musculus; experiment: Decrease in plasma glucose concentration in obese/diabetic KKAy mouse; format: ADME, organism-based
Mus musculus [5] = organism: Mus musculus; experiment: Decrease in body weight gain in obese/diabetic KKAy mouse; format: functional, organism-based

| IC50 [1] | IC50 [2] | Activity (Mus musculus [3]) | Activity (Mus musculus [4]) | Compound | Activity (Mus musculus [5]) |
| --- | --- | --- | --- | --- | --- |
| 1.7 µM | 1.1 µM |  |  | CC(=O)c1ccc2c(c1)N=C(c1ccc(C(=O)O)c(F)c1)c1cc3c(cc1N2C)C(C)(C)CCC3(C)C |  |
| 3 µM | 2 µM |  |  | CSc1ccc2c(c1)N=C(c1ccc(C(=O)O)cc1)c1cc3c(cc1N2C)C(C)(C)CCC3(C)C |  |
| 1 µM | 0.45 µM |  |  | CN1c2ccc(S(=O)(=O)N3CCOCC3)cc2N=C(c2ccc(C(=O)O)cc2)c2cc3c(cc21)C(C)(C)CCC3(C)C |  |
| 0.92 µM | 0.45 µM |  |  | CCCS(=O)(=O)c1ccc2c(c1)N=C(c1ccc(C(=O)O)cc1)c1cc3c(cc1N2C)C(C)(C)CCC3(C)C |  |
| 1.4 µM | 0.78 µM |  |  | COc1ccc(CS(=O)(=O)c2ccc3c(c2)N=C(c2ccc(C(=O)O)cc2)c2cc4c(cc2N3C)C(C)(C)CCC4(C)C)cc1 |  |
| 11 µM |  |  |  | CN1CCN(c2ccc3c(c2)N=C(c2ccc(C(=O)O)cc2)c2cc4c(cc2N3C)C(C)(C)CCC4(C)C)CC1 |  |
| 1.9 µM | 1 µM |  |  | CN1CCN(S(=O)(=O)c2ccc3c(c2)N=C(c2ccc(C(=O)O)cc2)c2cc4c(cc2N3C)C(C)(C)CCC4(C)C)CC1 |  |
| 1.2 µM | 0.52 µM |  |  | CN1c2ccc(C#N)cc2N=C(c2ccc(C(=O)O)c(F)c2)c2cc3c(cc21)C(C)(C)CCC3(C)C |  |
| 0.36 µM | 0.17 µM |  |  | COc1ccc(S(=O)(=O)c2ccc3c(c2)N=C(c2ccc(C(=O)O)cc2)c2cc4c(cc2N3C)C(C)(C)CCC4(C)C)cc1 |  |
| 2.1 µM | 2.1 µM |  |  | CCCN1c2ccc(C#N)cc2N=C(c2ccc(C(=O)O)cc2)c2cc3c(cc21)C(C)(C)CCC3(C)C |  |
| 1.6 µM | 0.67 µM |  |  | CN1c2ccc(SCc3ccc(Cl)cc3)cc2N=C(c2ccc(C(=O)O)cc2)c2cc3c(cc21)C(C)(C)CCC3(C)C |  |
| 1.3 µM | 1.3 µM |  |  | CNS(=O)(=O)c1ccc2c(c1)N=C(c1ccc(C(=O)O)cc1)c1cc3c(cc1N2C)C(C)(C)CCC3(C)C |  |
| 3.3 µM | 3 µM |  |  | CCN1c2ccc(C(C)=O)cc2N=C(c2ccc(C(=O)O)cc2F)c2cc3c(cc21)C(C)(C)CCC3(C)C |  |
| 0.24 µM | 0.13 µM |  |  | CN1c2ccc(S(=O)(=O)c3ccc(OC(F)(F)F)cc3)cc2N=C(c2ccc(C(=O)O)cc2)c2cc3c(cc21)C(C)(C)CCC3(C)C |  |
| 0.95 µM | 0.42 µM |  |  | CN1c2ccc(S(=O)(=O)Cc3ccc(Cl)cc3)cc2N=C(c2ccc(C(=O)O)cc2)c2cc3c(cc21)C(C)(C)CCC3(C)C |  |
| 1.7 µM | 1.4 µM |  |  | CN1c2ccc(S(C)(=O)=O)cc2N=C(c2ccc(C(=O)O)cc2)c2cc3c(cc21)C(C)(C)CCC3(C)C |  |

| IC50 [1] | IC50 [2] | Activity (Mus musculus [3]) | Activity (Mus musculus [4]) | Compound | Activity (Mus musculus [5]) |
| --- | --- | --- | --- | --- | --- |
| 7 µM | 3.9 µM |  |  | CN1c2ccc(N3CCOCC3)cc2N=C(c2ccc(C(=O)O)cc2)c2cc3c(cc21)C(C)(C)CCC3(C)C |  |
| 1.6 µM | 0.72 µM |  |  | COc1ccc(Sc2ccc3c(c2)N=C(c2ccc(C(=O)O)cc2)c2cc4c(cc2N3C)C(C)(C)CCC4(C)C)cc1 |  |
| 4.9 µM | 5.5 µM |  |  | COc1ccc(CSc2ccc3c(c2)N=C(c2ccc(C(=O)O)cc2)c2cc4c(cc2N3C)C(C)(C)CCC4(C)C)cc1 |  |
| 0.96 µM | 0.46 µM |  |  | CN1c2ccc(S(=O)(=O)Nc3ccc(OC(F)(F)F)cc3)cc2N=C(c2ccc(C(=O)O)cc2)c2cc3c(cc21)C(C)(C)CCC3(C)C |  |
| 1.1 µM | 0.89 µM |  |  | CC(=O)c1ccc2c(c1)N=C(c1ccc(C(=O)O)cc1)c1cc3c(cc1N2C)C(C)(C)CCC3(C)C |  |
| 1 µM | 0.45 µM |  |  | CN1c2ccc(S(=O)(=O)N3CCCC3)cc2N=C(c2ccc(C(=O)O)cc2)c2cc3c(cc21)C(C)(C)CCC3(C)C |  |
| 2.2 µM | 2 µM |  |  | CN1c2ccc(S(=O)(=O)N(C)C)cc2N=C(c2ccc(C(=O)O)cc2)c2cc3c(cc21)C(C)(C)CCC3(C)C |  |
| 0.82 µM | 0.43 µM |  |  | CN1c2ccc(C#N)cc2N=C(c2ccc(C(=O)O)cc2)c2cc3c(cc21)C(C)(C)CCC3(C)C |  |
| 4.6 µM |  |  |  | CC(=O)c1ccc2c(c1)N=C(c1ccc(C(=O)O)cc1F)c1cc3c(cc1N2C)C(C)(C)CCC3(C)C |  |
| 1 µM | 0.39 µM |  |  | CN1c2ccc(Sc3ccc(OC(F)(F)F)cc3)cc2N=C(c2ccc(C(=O)O)cc2)c2cc3c(cc21)C(C)(C)CCC3(C)C |  |
| 0.48 µM | 0.32 µM |  |  | CCN1c2ccc(C#N)cc2N=C(c2ccc(C(=O)O)cc2)c2cc3c(cc21)C(C)(C)CCC3(C)C |  |
| 0.41 µM | 0.19 µM |  |  | CCCCNS(=O)(=O)c1ccc2c(c1)N=C(c1ccc(C(=O)O)cc1)c1cc3c(cc1N2C)C(C)(C)CCC3(C)C |  |
| 1.1 µM | 0.53 µM |  |  | CCN1c2ccc(C#N)cc2N=C(c2ccc(C(=O)O)cc2F)c2cc3c(cc21)C(C)(C)CCC3(C)C |  |
| 0.77 µM | 0.5 µM | Active | Active | CCN1c2ccc(C#N)cc2N=C(c2ccc(C(=O)O)c(F)c2)c2cc3c(cc21)C(C)(C)CCC3(C)C | Active |
| 0.97 µM | 0.79 µM |  |  | CCN1c2ccc(C(C)=O)cc2N=C(c2ccc(C(=O)O)cc2)c2cc3c(cc21)C(C)(C)CCC3(C)C |  |
